From patent US20250353864A1, “INDAZOLE CONTAINING MACROCYCLES AND THEIR USE” (BLOSSOMHILL THERAPEUTICS, INC., priority 2022, published 2025)

Tests used:
Type in all cases: biochemical
[1] = target: CLK3 (Homo sapiens (Human), UniProt P49761); test: Inhibition of CLK3 kinase activity evaluated at Nanosyn (ADP-Glo); conditions: ADP-Glo luminescence
Method: (§1) Inhibition of CLK, CLK2, CLK3 and CLK4 Kinase Activity Evaluated at Nanosyn
(§2) Kinase protein and substrate were pre-diluted in the HEPES assay buffer (100 mM HEPES, pH 7.5, 0.01% Triton X-100, 0.1% BSA, 5 mM MgCl2, […] DTT, 10 Sodium Orthovanadate, […] Beta-Glycerophosphate) dispensed into 384 well plate (5 μL per well). Control samples (0%-inhibition in the absence of inhibitor, DMSO only) and 100%-inhibition (in the absence of enzyme) were assembled in replicates of six and were used to calculate %-inhibition in the presence of compounds. Test compounds were added to the protein samples by acoustic dispensing (Labcyte Echo550). Concentration of DMSO was equalized to 1% in all samples. Reactions were initiated by addition of ATP by acoustic dispensing (Labcyte Echo550) and incubated according to assay specific incubation time. After incubation. 5 μL of Promega ADP-Glo reagent was added and incubated for 40 minutes. After 40 minutes, 10 uL of Promega kinase detection reagent was added. After 10 min of incubation with Kinase detection reagent, the luminescence was read on microplate reader (Biotek Synergy).

[2] = target: EGFR (D770_N771insNPG) (Homo sapiens (Human), UniProt P00533, INS770NPG); test: HotSpot radiometric kinase assay, EGFR (D770_N771insNPG); conditions: 10 μM ATP, read-out: EGFR (Δ770_N771insNPG) IC50
How it was run: (§3)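 IC50 values come from curve fits of ^33P incorporation captured on P81 filters after acid washing. Kinase reactions ran 120 min at room temperature with 10 μM ATP, added about 20 min after compound. Buffer was Hepes pH 7.5 containing Mg, DTT and 1% DMSO.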

[3] = target: EGFR L858R mutant (Homo sapiens (Human), UniProt P00533, L858R); test: HotSpot radiometric kinase assay, EGFR L858R mutant; conditions: 10 μM ATP
How it was run: as §3

[4] = target: CLK1 (Homo sapiens (Human), UniProt P49759); test: Inhibition of CLK1 kinase activity evaluated at Nanosyn (ADP-Glo); conditions: ADP-Glo luminescence
Method: as §1, §2

[5] = target: CLK2 (Homo sapiens (Human), UniProt P49760); test: Inhibition of CLK2 kinase activity evaluated at Nanosyn (ADP-Glo); conditions: ADP-Glo luminescence
Method: as §1, §2

[6] = target: EGFR Δ746-750/C797S mutant (Homo sapiens (Human), UniProt P00533, C797S/DEL746-750); test: HotSpot radiometric kinase assay, EGFR Δ746-750/C797S mutant; conditions: 10 μM ATP
How it was run: as §3

[7] = target: EGFR L858R/T790M/C797S mutant (Homo sapiens (Human), UniProt P00533, C797S/L858R/T790M); test: HotSpot radiometric kinase assay, EGFR L858R/T790M/C797S mutant; conditions: 10 μM ATP
How it was run: as §3

[8] = target: EGFR WT (Homo sapiens (Human), UniProt P00533); test: HotSpot radiometric kinase assay (Reaction Biology), EGFR WT; conditions: 10 μM ATP
How it was run: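 Compounds were preincubated ~20 min with kinase/substrate in pH 7.5 Hepes buffer (MgCl2, EGTA, Brij35, BSA, Na3VO4, DTT, 1% DMSO), then ATP plus 33P-ATP was added to 10 μM final. After 120 min at room temperature, reactions were spotted on P81 filters and washed; IC50 values came from curve fits.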

[9] = target: EGFR Δ746-750 mutant (Homo sapiens (Human), UniProt P00533, DEL746-750); test: HotSpot radiometric kinase assay, EGFR Δ746-750 mutant; conditions: 10 μM ATP
How it was run: as §3

[10] = target: EGFR L858R/T790M mutant (Homo sapiens (Human), UniProt P00533, L858R/T790M); test: HotSpot radiometric kinase assay, EGFR L858R/T790M mutant; conditions: 10 μM ATP
How it was run: as §3

[11] = target: CLK4 (Homo sapiens (Human), UniProt Q9HAZ1); test: Inhibition of CLK4 kinase activity evaluated at Nanosyn (ADP-Glo); conditions: ADP-Glo luminescence
Method: as §1, §2

Sequence of CLK2 (P49760 whole entry): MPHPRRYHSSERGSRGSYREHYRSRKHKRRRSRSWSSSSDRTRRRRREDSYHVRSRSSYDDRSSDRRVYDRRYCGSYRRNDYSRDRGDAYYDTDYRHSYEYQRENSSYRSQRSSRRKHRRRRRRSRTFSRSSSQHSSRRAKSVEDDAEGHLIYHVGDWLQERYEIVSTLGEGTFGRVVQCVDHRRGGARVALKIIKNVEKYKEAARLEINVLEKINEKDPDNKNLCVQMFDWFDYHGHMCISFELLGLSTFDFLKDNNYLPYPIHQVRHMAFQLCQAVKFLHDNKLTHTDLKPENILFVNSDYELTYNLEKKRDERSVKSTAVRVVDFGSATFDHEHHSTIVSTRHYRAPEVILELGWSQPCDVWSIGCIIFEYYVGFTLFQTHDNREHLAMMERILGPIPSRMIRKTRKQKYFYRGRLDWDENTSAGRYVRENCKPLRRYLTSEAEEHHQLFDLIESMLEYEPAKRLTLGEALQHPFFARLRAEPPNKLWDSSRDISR
Sequence of EGFR L858R/T790M/C797S mutant (P00533 25-1210 T790M/C797S/L858R): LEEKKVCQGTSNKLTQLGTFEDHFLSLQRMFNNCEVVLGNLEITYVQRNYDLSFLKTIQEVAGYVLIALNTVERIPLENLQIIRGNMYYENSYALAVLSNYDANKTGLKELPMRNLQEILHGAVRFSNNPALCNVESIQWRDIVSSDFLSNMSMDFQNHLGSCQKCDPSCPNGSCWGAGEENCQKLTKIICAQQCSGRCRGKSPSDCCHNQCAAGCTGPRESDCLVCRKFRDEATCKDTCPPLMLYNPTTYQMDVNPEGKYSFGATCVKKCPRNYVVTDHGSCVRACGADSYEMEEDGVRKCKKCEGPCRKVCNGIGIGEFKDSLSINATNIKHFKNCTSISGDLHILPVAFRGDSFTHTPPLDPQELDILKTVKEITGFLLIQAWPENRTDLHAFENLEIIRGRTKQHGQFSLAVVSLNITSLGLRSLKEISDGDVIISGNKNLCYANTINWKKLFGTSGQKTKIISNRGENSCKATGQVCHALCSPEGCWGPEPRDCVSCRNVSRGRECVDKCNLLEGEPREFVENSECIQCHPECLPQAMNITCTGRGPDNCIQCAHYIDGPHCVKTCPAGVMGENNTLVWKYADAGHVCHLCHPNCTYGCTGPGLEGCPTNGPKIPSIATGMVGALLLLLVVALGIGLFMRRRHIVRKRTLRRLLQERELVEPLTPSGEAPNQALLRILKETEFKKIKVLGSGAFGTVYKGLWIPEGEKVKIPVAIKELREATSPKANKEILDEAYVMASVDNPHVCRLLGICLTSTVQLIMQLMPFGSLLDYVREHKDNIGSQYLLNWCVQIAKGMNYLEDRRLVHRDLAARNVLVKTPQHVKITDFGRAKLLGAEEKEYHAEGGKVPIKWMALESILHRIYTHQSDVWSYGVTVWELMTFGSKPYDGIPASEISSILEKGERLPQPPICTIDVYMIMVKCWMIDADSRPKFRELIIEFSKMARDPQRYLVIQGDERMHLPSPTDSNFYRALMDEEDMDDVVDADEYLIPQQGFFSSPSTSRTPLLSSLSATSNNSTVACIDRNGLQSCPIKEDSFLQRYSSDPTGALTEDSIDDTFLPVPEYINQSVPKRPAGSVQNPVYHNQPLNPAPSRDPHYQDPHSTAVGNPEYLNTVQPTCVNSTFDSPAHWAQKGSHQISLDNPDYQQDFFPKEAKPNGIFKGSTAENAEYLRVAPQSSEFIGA
Sequence of EGFR WT (P00533 25-1210): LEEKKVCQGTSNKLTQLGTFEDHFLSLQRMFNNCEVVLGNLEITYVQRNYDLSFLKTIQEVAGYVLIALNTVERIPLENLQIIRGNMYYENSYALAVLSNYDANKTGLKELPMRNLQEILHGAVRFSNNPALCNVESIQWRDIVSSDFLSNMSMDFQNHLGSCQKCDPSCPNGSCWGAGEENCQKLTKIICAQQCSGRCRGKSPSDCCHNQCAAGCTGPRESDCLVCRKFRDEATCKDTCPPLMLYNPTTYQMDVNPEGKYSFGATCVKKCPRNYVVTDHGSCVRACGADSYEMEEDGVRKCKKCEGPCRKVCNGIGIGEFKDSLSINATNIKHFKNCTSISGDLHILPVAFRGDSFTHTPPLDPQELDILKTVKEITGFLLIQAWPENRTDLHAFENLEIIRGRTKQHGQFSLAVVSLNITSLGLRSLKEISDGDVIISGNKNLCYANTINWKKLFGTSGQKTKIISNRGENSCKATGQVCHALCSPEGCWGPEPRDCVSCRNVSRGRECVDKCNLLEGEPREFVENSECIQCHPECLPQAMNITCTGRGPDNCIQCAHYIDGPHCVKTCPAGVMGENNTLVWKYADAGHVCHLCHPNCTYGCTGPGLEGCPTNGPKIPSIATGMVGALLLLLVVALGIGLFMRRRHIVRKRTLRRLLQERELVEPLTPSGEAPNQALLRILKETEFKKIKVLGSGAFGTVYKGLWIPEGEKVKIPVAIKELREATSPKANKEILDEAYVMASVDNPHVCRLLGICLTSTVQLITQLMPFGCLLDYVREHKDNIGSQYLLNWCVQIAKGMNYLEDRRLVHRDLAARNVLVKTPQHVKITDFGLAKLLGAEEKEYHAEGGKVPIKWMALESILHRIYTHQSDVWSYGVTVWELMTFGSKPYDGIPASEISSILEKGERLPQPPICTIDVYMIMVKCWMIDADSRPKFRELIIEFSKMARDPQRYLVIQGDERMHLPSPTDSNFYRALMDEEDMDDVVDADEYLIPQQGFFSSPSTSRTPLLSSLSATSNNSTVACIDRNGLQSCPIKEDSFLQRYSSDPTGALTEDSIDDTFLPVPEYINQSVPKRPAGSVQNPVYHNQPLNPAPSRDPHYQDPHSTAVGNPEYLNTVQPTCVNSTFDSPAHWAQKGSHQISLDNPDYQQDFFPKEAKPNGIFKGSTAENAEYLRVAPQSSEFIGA
Sequence of EGFR Δ746-750/C797S mutant (P00533 other isoform, or with tags, fused parts or gaps C797S/del 1-668/del 746-750 limits assumed): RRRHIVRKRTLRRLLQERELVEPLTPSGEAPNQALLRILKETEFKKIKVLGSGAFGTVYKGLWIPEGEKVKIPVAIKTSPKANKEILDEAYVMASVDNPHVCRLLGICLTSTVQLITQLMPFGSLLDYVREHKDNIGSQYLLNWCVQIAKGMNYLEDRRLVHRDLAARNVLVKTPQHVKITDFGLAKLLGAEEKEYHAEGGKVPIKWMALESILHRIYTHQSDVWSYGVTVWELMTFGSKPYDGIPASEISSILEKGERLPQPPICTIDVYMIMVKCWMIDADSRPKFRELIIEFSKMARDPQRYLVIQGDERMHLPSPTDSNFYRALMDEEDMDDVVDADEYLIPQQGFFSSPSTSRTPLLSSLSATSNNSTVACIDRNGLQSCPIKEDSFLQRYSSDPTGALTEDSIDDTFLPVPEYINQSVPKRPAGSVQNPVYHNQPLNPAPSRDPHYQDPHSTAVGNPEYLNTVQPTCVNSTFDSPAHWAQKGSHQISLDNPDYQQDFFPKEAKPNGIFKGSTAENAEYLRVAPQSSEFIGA
Sequence of CLK1 (P49759 whole entry): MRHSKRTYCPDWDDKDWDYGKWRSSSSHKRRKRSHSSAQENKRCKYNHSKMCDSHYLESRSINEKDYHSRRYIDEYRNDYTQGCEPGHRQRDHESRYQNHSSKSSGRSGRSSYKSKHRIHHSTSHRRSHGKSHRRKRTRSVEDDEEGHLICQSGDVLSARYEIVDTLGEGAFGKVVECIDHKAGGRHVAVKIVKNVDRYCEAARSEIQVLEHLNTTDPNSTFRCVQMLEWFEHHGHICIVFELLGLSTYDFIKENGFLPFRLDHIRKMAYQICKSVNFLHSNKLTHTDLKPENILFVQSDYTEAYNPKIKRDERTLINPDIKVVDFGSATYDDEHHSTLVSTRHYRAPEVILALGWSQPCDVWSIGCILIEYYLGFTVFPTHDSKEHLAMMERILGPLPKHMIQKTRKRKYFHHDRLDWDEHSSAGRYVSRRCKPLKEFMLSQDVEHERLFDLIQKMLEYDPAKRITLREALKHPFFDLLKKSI
Sequence of EGFR L858R/T790M mutant (P00533 25-1210 T790M/L858R): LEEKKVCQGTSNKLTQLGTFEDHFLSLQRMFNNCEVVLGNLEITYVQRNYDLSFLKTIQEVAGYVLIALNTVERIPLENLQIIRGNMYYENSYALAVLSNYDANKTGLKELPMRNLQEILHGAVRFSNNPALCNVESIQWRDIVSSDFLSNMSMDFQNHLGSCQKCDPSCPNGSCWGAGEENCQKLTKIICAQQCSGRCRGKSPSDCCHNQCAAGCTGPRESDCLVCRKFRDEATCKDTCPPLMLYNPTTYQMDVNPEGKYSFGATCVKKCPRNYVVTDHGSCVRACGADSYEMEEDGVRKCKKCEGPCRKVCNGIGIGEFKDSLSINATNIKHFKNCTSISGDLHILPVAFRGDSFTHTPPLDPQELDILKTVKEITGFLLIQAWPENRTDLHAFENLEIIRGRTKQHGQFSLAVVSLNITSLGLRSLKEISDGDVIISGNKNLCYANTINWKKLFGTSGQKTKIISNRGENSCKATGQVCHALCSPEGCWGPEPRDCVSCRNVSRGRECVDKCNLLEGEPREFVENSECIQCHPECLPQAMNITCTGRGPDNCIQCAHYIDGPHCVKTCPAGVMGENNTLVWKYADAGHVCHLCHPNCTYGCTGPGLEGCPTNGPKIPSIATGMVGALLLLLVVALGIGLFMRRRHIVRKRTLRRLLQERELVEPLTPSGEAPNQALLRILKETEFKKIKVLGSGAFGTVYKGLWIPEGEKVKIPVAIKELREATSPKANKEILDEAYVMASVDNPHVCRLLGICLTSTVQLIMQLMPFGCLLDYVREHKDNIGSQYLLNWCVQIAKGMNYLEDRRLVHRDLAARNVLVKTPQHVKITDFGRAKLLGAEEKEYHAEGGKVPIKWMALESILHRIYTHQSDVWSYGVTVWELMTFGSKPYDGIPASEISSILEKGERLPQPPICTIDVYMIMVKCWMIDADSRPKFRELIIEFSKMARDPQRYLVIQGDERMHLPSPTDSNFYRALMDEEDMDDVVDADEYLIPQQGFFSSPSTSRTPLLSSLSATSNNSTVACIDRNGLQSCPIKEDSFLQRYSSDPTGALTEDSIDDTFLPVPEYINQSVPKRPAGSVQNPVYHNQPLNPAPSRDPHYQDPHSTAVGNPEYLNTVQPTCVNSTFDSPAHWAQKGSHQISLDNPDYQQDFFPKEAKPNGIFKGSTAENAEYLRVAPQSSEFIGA

IC50 [1] | IC50 [2] | IC50 [3] | IC50 [4] | IC50 [5] | IC50 [6] | IC50 [7] | IC50 [8] | IC50 [9] | IC50 [10] | IC50 [11] | Structure (SMILES)
77.7 nM | 65.4 nM | 12.2 nM | 1.11 nM | 0.49 nM | 1.44 nM | 0.21 nM | 51.8 nM | 5.39 nM | 0.57 nM | 1.92 nM | CC(C)Oc1nn(CCO)c2c1/C=C/c1n[nH]c3ccc(cc13)-c1cnn(C)c1OC(CF)CN(C)C2 (stereo not drawn) [Example 225, 2-{(17E)-10-(fluoromethyl)-8,12-dimethyl-16-[(propan-2-yl)oxy]-2,8,10,11,12,13-hexahydro-14H-3,5-ethenotripyrazolo[3,4-f:3′,4′-j:4″,3″-n][1,4]oxazacyclopentadecin-14-yl}ethan-1-ol]
63.6 nM | 64.9 nM | 4.34 nM | 0.42 nM | 0.13 nM | 3.62 nM | 1.04 nM | 19.3 nM | 1.77 nM | 0.88 nM | 0.4 nM | CCOc1nn(C)c2c1/C=C/c1n[nH]c3ccc(cc13)-c1cnn(C)c1O[C@@H](C)CN(C(C)C)C2 [Example 156, (10S,17E)-16-ethoxy-8,10,14-trimethyl-12-(propan-2-yl)-2,10,11,12,13,14-hexahydro-8H-3,5-ethenotripyrazolo[3,4-f:3′,4′-j:4″,3″-n][1,4]oxazacyclopentadecine]
20.9 nM | 0.91 nM | 0.1 nM | 0.23 nM | 0.12 nM | 0.92 nM | 0.98 nM | 0.38 nM | 0.17 nM | 0.11 nM | 0.46 nM | Cc1nn(CCO)c2c1/C=C/c1n[nH]c3ccc(cc13)-c1cnn(C)c1O[C@@H](C)CN(C(C)C)C2 [Example 114, 2-[(10S,17E)-8,10,16-trimethyl-12-(propan-2-yl)-2,8,10,11,12,13-hexahydro-14H-3,5-ethenotripyrazolo[3,4-f:3′,4′-j:4″,3″- n][1,4]oxazacyclopentadecin-14-yl]ethan-1-ol]
12.1 nM | 1630 nM | 39.6 nM | 0.19 nM | 0.02 nM | 41.3 nM | 4.63 nM | 320 nM | 39.4 nM | 1.58 nM | 0.61 nM | C[C@H]1CN(C)Cc2c(c(OC3CCN(S(C)(=O)=O)CC3)nn2C)/C=C/c2n[nH]c3ccc(cc23)-c2cnn(C)c2O1 [Example 143, (10S,17E)-16-{[1-(methanesulfonyl)piperidin-4-yl]oxy}-8,10,12,14-tetramethyl-2,10,11, 12,13,14-hexahydro-8H-3,5-ethenotripyrazolo[3,4-f 3′,4′-j:4″,3″-n][1,4]oxazacyclopentadecine]
236 nM | 541 nM | 144 nM | 0.1 nM | 0.14 nM | 133 nM | 34.5 nM | 543 nM | 74.8 nM | 13.5 nM | 0.25 nM | Cc1nn(C)c2c1/C=C/c1n[nH]c3ccc(cc13)-c1cnn(C)c1OCCN(C)C2 [Example 43, (17E)-8,12,14,16-tetramethyl-2,10,11,12,13,14-hexahydro-8H-3,5-ethenotripyrazolo[3,4-f:3′,4′-j:4″,3″- n][1,4]oxazacyclopentadecine]
38.2 nM | 246 nM | 34.4 nM | 0.22 nM | 0.3 nM | 19.5 nM | 1.08 nM | 63 nM | 13.6 nM | 1.42 nM | 0.41 nM | CCOc1nn(C)c2c1/C=C/c1n[nH]c3ccc(cc13)-c1cnn(C)c1O[C@@H]1CCCN(C2)C1 [Example 160, (10R,19E)-18-ethoxy-8,16-dimethyl-2,8,10,11,12,13,15,16-octahydro-3,5-etheno-10,14-methanotripyrazolo[3,4-h:3′,4′-l:4″,3″- p][1,6]oxazacycloheptadecine]
61.8 nM | 232 nM | 8.73 nM | 1.08 nM | 2.38 nM | 5.25 nM | 19.3 nM | 22.2 nM | 6.9 nM | 4.35 nM | 1.56 nM | CCOc1nn(C)c2c1/C=C/c1n[nH]c3cc(F)c(cc13)-c1cnn(C)c1OC1CCCN(C2)C1 (stereo in doubt) [Example 178]
164 nM | 191 nM | 47.1 nM | 0.27 nM | 0.14 nM | 13.5 nM | 1.4 nM | 171 nM | 20 nM | 3.1 nM | 0.57 nM | Cc1nn(C)c2c1/C=C/c1n[nH]c3ccc(cc13)-c1cnn(C)c1O[C@@H](C)CN(C1CC1)C2 [Example 161, (10S,17E)-12-cyclopropyl-8,10,14,16-tetramethyl-2,10,11,12,13,14-hexahydro-8H-3,5-ethenotripyrazolo[3,4-f:3′,4′-j:4″,3″-n][1,4]oxazacyclopentadecine]
9.89 nM | 4.05 nM | 1.18 nM | 0.82 nM | 0.27 nM | 1.98 nM | 6.62 nM | 1.43 nM | 0.95 nM | 3.01 nM | 1.6 nM | CC(C)Oc1nn(CCO)c2c1/C=C/c1n[nH]c3cc(F)c(cc13)-c1cnn(C)c1O[C@H](C)[C@H]1CCCN1C2 (single isomer, unassigned) [Example 255]
1 nM | 575 nM | 515 nM | 2.76 nM | 8.84 nM | 475 nM | 27.5 nM | 1440 nM | 398 nM | 23.1 nM | 4.31 nM | CC(C)Oc1nn(CCO)c2c1/C=C/c1n[nH]c3ccc(cc13)-c1cnn(C)c1O[C@@H](C)C(=O)N(C)C2 [Example 220, (10S,17E)-14-(2-hydroxyethyl)-8,10,12-trimethyl-16-[(propan-2-yl)oxy]-2,12,13,14-tetrahydro-8H-3,5-ethenotripyrazolo[3,4-f:3′,4′-j:4″,3″- n][1,4]oxazacyclopentadecin-11(10H)-one]
397 nM | 68.9 nM | 12 nM | 0.66 nM | 1.73 nM | 11.5 nM | 1.06 nM | 26.8 nM | 5.11 nM | 0.8 nM | 1.03 nM | CCOc1nn(C)c2c1/C=C/c1n[nH]c3ccc(cc13)-c1cnn(C)c1O[C@@H]1CCN(C2)C1 [Example 236, (10R,18E)-17-ethoxy-8,15-dimethyl-2,8,11,12,14,15-hexahydro-10H-3,5-etheno-10,13-methanotripyrazolo[3,4-g:3′,4′-k:4″,3″- o][1,5]oxazacyclohexadecine]
519 nM | 826 nM | 491 nM | 1.06 nM | 3.08 nM | 70 nM | 8.63 nM | 815 nM | 162 nM | 18 nM | 1.59 nM | CC(C)Oc1nn(CCO)c2c1/C=C/c1n[nH]c3ccc(cc13)-c1cnn(C)c1O[C@@H](C#N)CN(C)C2 [Example 264, (10R,17E)-14-(2-hydroxyethyl)-8,12-dimethyl-16-[(propan-2-yl)oxy]-2,10,11,12,13,14-hexahydro-8H-3,5-ethenotripyrazolo[3,4-f:3′,4′-j:4″,3″-n][1,4]oxazacyclopentadecine-10-carbonitrile]
